In BindingDB's records for doi:10.1124/jpet.105.084830 (University of Tokyo, 2005):

Tests used:
Bile salt export pump [1] = biological target: Bile salt export pump (Homo sapiens, UniProt O95342)
Bile salt export pump [2] = biological target: T1, Bile salt export pump (Rattus norvegicus, UniProt O70127)
T1 sequence (O70127 whole entry): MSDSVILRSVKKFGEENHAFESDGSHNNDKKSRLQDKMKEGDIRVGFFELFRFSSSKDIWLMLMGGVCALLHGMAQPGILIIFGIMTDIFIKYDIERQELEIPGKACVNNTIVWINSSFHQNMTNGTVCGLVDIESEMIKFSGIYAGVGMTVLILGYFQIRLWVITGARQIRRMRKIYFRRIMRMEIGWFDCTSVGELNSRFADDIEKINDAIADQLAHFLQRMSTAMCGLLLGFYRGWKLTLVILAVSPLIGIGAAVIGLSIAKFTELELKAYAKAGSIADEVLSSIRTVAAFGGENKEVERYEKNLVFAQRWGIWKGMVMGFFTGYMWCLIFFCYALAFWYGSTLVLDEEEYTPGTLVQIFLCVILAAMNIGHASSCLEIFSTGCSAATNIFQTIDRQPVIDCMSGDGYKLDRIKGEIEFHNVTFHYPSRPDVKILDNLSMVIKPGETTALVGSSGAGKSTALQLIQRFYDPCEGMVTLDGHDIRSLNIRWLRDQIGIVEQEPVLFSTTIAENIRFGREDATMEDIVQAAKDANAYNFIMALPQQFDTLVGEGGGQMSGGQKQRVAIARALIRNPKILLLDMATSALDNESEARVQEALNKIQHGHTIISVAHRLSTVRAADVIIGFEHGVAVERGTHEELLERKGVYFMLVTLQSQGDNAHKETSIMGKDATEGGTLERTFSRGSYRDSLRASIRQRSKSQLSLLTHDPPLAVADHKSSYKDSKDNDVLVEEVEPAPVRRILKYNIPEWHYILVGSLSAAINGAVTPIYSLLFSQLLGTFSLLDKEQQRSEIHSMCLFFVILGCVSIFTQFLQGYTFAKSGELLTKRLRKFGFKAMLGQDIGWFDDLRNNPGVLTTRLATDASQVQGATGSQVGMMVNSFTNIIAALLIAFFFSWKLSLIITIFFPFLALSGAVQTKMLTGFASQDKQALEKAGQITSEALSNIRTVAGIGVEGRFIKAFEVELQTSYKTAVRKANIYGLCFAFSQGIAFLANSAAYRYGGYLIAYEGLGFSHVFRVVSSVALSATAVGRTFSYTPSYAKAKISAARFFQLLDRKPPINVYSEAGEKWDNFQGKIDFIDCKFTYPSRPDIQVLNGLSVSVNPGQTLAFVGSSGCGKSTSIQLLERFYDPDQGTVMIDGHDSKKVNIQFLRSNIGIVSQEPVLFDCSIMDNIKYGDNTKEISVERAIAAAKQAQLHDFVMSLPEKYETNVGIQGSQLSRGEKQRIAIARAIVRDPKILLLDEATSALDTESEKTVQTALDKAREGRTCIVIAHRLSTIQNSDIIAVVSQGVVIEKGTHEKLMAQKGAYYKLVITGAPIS

Chain of Bile salt export pump (Homo sapiens, UniProt O95342) (O95342 whole entry): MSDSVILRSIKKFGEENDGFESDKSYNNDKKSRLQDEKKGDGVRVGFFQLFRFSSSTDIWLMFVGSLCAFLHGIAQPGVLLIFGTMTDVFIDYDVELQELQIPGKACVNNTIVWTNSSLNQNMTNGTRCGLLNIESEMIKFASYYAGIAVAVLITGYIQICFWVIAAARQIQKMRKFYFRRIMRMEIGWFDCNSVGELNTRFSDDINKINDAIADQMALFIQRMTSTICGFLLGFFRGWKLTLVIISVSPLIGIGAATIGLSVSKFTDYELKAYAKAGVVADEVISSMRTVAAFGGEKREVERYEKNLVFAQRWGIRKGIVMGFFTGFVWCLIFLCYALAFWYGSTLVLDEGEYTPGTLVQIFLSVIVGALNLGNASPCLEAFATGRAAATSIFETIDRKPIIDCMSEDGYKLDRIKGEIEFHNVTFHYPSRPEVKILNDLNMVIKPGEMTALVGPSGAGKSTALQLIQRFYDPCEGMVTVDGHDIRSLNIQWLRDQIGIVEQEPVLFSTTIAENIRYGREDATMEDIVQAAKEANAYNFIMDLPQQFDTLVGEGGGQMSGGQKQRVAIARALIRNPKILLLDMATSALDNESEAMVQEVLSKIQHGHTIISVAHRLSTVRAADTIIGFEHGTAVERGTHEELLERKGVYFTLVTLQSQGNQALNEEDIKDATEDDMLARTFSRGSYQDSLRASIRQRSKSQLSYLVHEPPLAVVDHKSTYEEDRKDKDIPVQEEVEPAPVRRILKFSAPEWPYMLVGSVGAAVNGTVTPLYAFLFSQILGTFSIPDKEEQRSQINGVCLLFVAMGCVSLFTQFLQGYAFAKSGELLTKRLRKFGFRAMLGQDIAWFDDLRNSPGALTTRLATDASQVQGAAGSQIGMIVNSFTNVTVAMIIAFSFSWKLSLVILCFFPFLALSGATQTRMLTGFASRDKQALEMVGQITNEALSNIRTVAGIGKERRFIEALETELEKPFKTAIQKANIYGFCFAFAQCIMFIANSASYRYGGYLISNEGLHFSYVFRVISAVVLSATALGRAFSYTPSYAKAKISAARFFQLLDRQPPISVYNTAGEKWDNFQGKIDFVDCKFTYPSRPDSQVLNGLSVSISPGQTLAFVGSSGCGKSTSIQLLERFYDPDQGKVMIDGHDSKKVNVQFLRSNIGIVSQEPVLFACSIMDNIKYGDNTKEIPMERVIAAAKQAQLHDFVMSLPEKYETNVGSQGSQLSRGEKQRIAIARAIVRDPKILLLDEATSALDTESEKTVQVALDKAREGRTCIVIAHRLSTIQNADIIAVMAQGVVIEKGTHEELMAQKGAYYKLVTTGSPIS

| Compound | Ki (Bile salt export pump [1]) [µM] | Ki (Bile salt export pump [2]) [µM] |
| --- | --- | --- |
| CC[C@H](C)C(=O)O[C@H]1C[C@H](O)C=C2C=C[C@H](C)[C@H](CC[C@@H](O)C[C@@H](O)CC(=O)O)[C@H]21 [(3R,5R)-7-[(1S,2S,6S,8S,8aR)-6-hydroxy-2-methyl-8-{[(2S)-2-methylbutanoyl]oxy}-1,2,6,7,8,8a-hexahydronaphthalen-1-yl]-3,5-dihydroxyheptanoic acid] | > 10 | > 10 |
| COCc1c(C(C)C)nc(C(C)C)c(/C=C/[C@@H](O)C[C@@H](O)CC(=O)O)c1-c1ccc(F)cc1 [(3R,5S,6E)-7-[4-(4-fluorophenyl)-5-(methoxymethyl)-2,6-bis(propan-2-yl)pyridin-3-yl]-3,5-dihydroxyhept-6-enoic acid] | – | > 10 |
| CC(C)n1c(/C=C/[C@@H](O)C[C@@H](O)CC(=O)O)c(-c2ccc(F)cc2)c2ccccc21 [CAS_93957-54-1] | – | > 10 |
| O=C(O)C[C@H](O)C[C@H](O)/C=C/c1c(C2CC2)nc2ccccc2c1-c1ccc(F)cc1 [CAS_147511-69-1] | > 10 | > 10 |
| CC(C)c1c(C(=O)Nc2ccccc2)c(-c2ccccc2)c(-c2ccc(F)cc2)n1CC[C@@H](O)C[C@@H](O)CC(=O)O [CI 981] | – | 7.57 |
| CCC(C)(C)C(=O)O[C@H]1C[C@@H](C)C=C2C=C[C@H](C)[C@H](CC[C@@H](O)C[C@@H](O)CC(=O)O)[C@H]21 [Simvastatin acid] | > 10 | > 10 |

Second part, the molecule after the results:

| Ki (Bile salt export pump [1]) [µM] | Ki (Bile salt export pump [2]) [µM] | Compound |
| --- | --- | --- |
| > 10 | > 10 | CC(C)c1nc(N(C)S(C)(=O)=O)nc(-c2ccc(F)cc2)c1/C=C/[C@@H](O)C[C@@H](O)CC(=O)O |
| > 10 | > 10 | CC(C)c1c(C(=O)Nc2ccccc2)c(-c2ccccc2)c(-c2ccc(F)cc2)n1CC[C@@H]1C[C@@H](O)CC(=O)O1 |
| – | > 10 | CCC(C)(C)C(=O)O[C@H]1C[C@@H](C)C=C2C=C[C@H](C)[C@H](CC[C@@H]3C[C@@H](O)CC(=O)O3)[C@H]21 [2,2-dimethylbutyric acid, 8-ester with (4R,6R)-6-(2-((1S,2S,6R,8S,8aR)-1,2,6,7,8,8a-hexahydro-8-hydroxy-2,6-dimethyl-1-naphthyl)ethyl)tetrahydro-4-hydroxy-2H-pyran-2-one] |
